# Literature values in US8022179B2 (priority 2005, dated 2011).
# Tested on: wrinkles
# Settings: in vivo; cited from earlier work
sequence,measurement,value
ARGIRELINE,wrinkle reduction,affords wrinkle reduction in certain cases
